Test results reported in US8796314B2, “Heteroaryls and uses thereof” (Millennium Pharmaceuticals, Inc., priority 2009, dated 2014).

Target: T1, PI3Kalpha (Homo sapiens, UniProt P42336)
T1 construct: His (N); host or cells: SF9 insect cells (baculovirus)
Test: Human PI3Kα enzyme assay (HTRF)
Type: biochemical
Conditions: ATP 25 uM, di-C8 PI(4,5)P2, 30 minutes at room temperature, values given only as potency bins
From the text: The catalytic subunits of PI3Ks are cloned into either pDEST8 (p110 alpha) or pDEST10 (p110beta, p110delta, and p110gamma) as N-terminal His tagged fusion proteins using the Gateway system (Invitrogen, catalog#11804-010 for pDEST8 and 11806-015 for pDEST10). The sequences are verified before recombinant protein expression using the Baculovirus Expression System with Gateway® Technology. The accession numbers for the subunits are as follows:
The regulatory subunits of PI3Ks are cloned into pDEST8 as un-tagged protein using the Gateway system (Catalog#11804-010). The sequences are verified before recombinant protein expression using the Baculovirus Expression System with Gateway® Technology. The accession numbers for the subunits are as following: p85 alpha (GB: BC030815) p101 (GB: AB028925)
For expression of the p110 complexes, the p85 (MOI of 4) is co-infected with p110 alpha, beta, and delta respectively (1 MOI) in SF9 cells and harvested at 60 hours post co-infection. P110 gamma was infected at 1 MOI and harvested at 60 hours post infection.
For purification, PI3Ks are purified by Ni-NTA Agarose (Qiagen #30250) followed by Mono Q 10/100 GL (Ge Healthcare #17-5167-01). VPS34 is purified by Glutathione Sepharose 4 Fast Flow (GE Healthcare #17-5132-03) followed by HiTrap Q (GE Healthcare #17-1153-01).
1) Human PI3Kα Enzyme Assay Method
0.5 uL compounds in DMSO are added to wells of a 384 well microtitre plate (Corning 3575). At room temperature: 10 ul PI3K reaction buffer (50 mM Hepes, 5 mM DTT, 150 mM NaCl, 10 mM beta-glycerophosphate, 10 mM MgCl2, 0.25 mM sodium cholate and 0.001% CHAPS, pH 7.00) containing ATP (25 uM, Promega) is added followed immediately by 10 ul PI3K reaction buffer containing di-C8 PI(4,5)P2 (3.5 uM, CellSignals) and PI3Kalpha (0.4875 nM, Millennium Protein Sciences Group) and the mixture is incubated with shaking at room temperature for 30 minutes. Then 5 ul PI3K stop mix (50 mM Hepes, 5 mM DTT, 150 mM NaCl, 0.01% Tween-20, 15 mM EDTA and 25 nM biotin-PI(3,4,5)P3 (Echelon) is added to quench the reaction followed immediately by addition of 5 ul HTRF detection mix (50 mM Hepes, 5 mM DTT, 150 mM NaCl, 0.01% Tween-20, 40 mM KF, 10 nM GST:GRP-1 PH domain (Millennium Protein Sciences Group), 15 nM Streptavidin-XL (CisBio) and 0.375 nM anti-GST Eu++ antibody (CisBio) at pH 7.00). The plates are then incubated for 1 hour at room temperature with shaking and then read on a BMG PheraStar Plus reader.

T1 sequence (P42336 whole entry): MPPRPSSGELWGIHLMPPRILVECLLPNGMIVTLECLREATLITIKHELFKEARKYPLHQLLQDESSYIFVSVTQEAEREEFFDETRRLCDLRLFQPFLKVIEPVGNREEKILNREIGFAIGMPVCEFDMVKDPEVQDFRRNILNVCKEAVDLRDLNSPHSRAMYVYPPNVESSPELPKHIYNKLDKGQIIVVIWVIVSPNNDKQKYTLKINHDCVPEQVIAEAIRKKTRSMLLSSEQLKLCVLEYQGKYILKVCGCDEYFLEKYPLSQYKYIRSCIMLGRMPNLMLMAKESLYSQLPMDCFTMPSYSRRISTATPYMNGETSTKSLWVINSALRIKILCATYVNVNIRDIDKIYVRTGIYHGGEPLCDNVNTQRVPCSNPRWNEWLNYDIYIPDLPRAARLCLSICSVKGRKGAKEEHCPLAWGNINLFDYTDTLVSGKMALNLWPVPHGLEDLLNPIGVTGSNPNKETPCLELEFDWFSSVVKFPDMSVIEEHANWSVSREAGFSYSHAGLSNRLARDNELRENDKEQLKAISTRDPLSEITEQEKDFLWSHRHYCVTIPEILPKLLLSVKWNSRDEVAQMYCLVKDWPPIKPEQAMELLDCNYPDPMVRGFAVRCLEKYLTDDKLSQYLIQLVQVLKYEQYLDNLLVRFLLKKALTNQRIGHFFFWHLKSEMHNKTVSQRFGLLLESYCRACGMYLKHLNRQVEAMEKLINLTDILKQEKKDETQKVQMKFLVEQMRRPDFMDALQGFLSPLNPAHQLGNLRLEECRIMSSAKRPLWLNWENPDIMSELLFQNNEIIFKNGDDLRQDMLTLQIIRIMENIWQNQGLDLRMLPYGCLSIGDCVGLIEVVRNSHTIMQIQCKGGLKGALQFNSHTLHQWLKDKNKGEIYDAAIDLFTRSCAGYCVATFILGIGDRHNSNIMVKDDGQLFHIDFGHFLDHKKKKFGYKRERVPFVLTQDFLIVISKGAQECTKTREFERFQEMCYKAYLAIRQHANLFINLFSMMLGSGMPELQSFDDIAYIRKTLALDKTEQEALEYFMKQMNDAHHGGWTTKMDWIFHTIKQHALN
T1 sequence (P27986 whole entry partner): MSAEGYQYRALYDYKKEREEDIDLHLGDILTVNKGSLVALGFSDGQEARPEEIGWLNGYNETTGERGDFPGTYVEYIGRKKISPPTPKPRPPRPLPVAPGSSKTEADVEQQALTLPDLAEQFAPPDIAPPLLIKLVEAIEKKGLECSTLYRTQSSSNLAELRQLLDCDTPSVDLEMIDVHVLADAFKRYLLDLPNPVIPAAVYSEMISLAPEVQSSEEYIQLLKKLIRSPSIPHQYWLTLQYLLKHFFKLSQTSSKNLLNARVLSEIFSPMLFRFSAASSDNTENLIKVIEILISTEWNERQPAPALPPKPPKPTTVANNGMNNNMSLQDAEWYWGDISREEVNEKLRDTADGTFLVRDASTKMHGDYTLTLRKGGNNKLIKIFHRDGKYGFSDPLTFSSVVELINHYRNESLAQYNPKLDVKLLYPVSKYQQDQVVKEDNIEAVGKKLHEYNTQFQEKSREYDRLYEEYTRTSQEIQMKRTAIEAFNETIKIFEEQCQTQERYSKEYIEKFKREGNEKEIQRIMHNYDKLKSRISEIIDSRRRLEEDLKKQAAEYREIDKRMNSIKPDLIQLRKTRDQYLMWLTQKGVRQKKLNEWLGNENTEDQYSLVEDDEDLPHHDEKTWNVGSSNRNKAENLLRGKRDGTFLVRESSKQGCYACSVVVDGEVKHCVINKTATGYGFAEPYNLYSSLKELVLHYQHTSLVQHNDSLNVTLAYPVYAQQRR

Compound | IC50 [nM]
N#Cc1c(-c2ccnc(NC(=O)c3ccccc3)c2)sc(-c2nnc[nH]2)c1-c1ccc(Cl)cc1Cl [Compound 1] | > 1000
CNc1cc(-c2cc(-c3ccc(Cl)cc3Cl)c(-c3ncc[nH]3)s2)ncn1 [Compound 84] | > 1000
Cc1cnc(N)nc1-c1sc(-c2nnc[nH]2)c(-c2ccc(Cl)cc2Cl)c1C#N [Compound 8] | > 1000
COc1ccc(CNc2cc(-c3sc(-c4nnc[nH]4)c(-c4ccc(Cl)cc4Cl)c3C#N)ccn2)c(OC)c1 [Compound 33] | > 1000

More lines, now with the values ahead:

IC50 [nM] | Compound
> 1000 | COc1cc(-c2sc(-c3nnc[nH]3)c(-c3ccc(Cl)cc3Cl)c2C#N)ccn1 [Compound 24]
> 1000 | CS(=O)(=O)Nc1cc(-c2sc(-c3nnc[nH]3)c(-c3ccc(Cl)cc3Cl)c2C#N)ccn1 [Compound 4]
< 100 | CNc1nccc(-c2sc(-c3ncc[nH]3)c(-c3ccc(Cl)cc3Cl)c2C#N)n1 [Compound 16]
< 100 | N#Cc1c(-c2ccnc(N)c2)sc(-c2cnc[nH]2)c1-c1ccc(Cl)cc1Cl [Compound 80, 2-(2-aminopyridin-4-yl)-4-(2,4-dichlorophenyl)-5-(1H-imidazol-5-yl)thiophene-3-carbonitrile]
100 to 1000 | N#Cc1c(-c2ccnc(N)c2)sc(C(N)=O)c1-c1ccc(Cl)cc1Cl [Compound 60]
> 1000 | CNC(=O)c1cc(-c2sc(-c3nnc[nH]3)c(-c3ccc(Cl)cc3Cl)c2C#N)ccn1 [Compound 44]
